From US9085642B2, “Peptide inhibiting rankl-rank interaction and the use thereof” (RESEARCH & BUSINESS FOUNDATION SUNGKYUNKWAN UNIVERSITY, priority 2013, dated 2015) come the findings set out here.

“Also recorded” adds a separate entry of the source. Bridge positions count the residues as written; N and C are the ends. Ends that are not written are not given here.

In this assay the test system is osteoclast precursors. As to the kind of experiment: Osteoclast differentiation by RANKL, TRAP assay and count of TRAP-positive multinucleated cells. It is filed as cell-based, rat. Conditions: RANKL-induced differentiation, peptides treated by concentrations, TRAP assay, FIGS. 6B and 7. On the procedure:
That is, osteoclast precursors of rats were extracted from tibia and the femoral region of 5 to 8-week male rats, and purified. The osteoclast precursors were cultured in α-MEM containing 30 ng/ml of M-CSF and 10% FBS in 96-well plates (1×10^5/ml, 200 μl/well). The cells were cultured at 37° C. in a wet atmosphere containing 5% CO2. Differentiation of the osteoclast precursors were measured by a value of tartrate-resistant acid phosphatase (TRAP) activity in vitro. The TRAP staining assay was performed using a matrix Naphthol AS phosphate in 100 mM sodium acetate (pH 5.2). TRAP-positive multinucleated cells were calculated as osteoclast-like multinucleated cells using a microscope, and the assay described above were repeated three times to obtain statistical data.
In the condition of differentiating osteoclasts by the RANKL, 5 peptides (L3-3, L3-3S, L3-3N, L3-3A, and L3-3B) manufactured in Example 5 were treated by concentrations to observe a degree of inhibition, and the results are shown in FIGS. 6 and 7.

As for “Ser-Asp-Cys-Glu-Cys-Ser-Arg-Arg (SDCECSRR; disulfide 3-5) [L3-3B]”, the “inhibitory effect on osteoclast differentiation” value is “better effects than conventionally disclosed peptides (L3-3 and L3-3S); also recorded: extraordinarily higher inhibitory effect than L3-3A”.
